For 7 compounds, CC50 results are on record in PubChem BioAssay AID504576 (Southern Research Specialized Biocontainment Screening …, 2011).

The assay concerns MAGI cells cytotoxicity, 2% serum, % cell control. As to the kind of experiment: MAGI cell cytotoxicity, R5 antiviral format, dose response, cytotoxicity control for HIV-1 antiviral lead project, CCR5-tropic MAGI assay, 2% serum, set 4 (AID 504576).
Usually CC50 stands for the concentration giving 50% cytotoxicity. Take `Cc1c2c(=O)n(-c3nc4ccccc4s3)nc-2cc(O)n1CCC(C)C`: the CC50 is 65 µM.
Turning to `Cc1c2c(=O)n(-c3nc4ccccc4s3)nc-2cc(O)n1CCc1ccc(O)cc1`, the CC50 is 20.5 µM.
On to `COc1ccc(CCn2c(O)cc3nn(-c4nc5ccccc5s4)c(=O)c-3c2C)cc1`, for which the half-maximal cytotoxic concentration (CC50) is 13.8 µM.
For the compound `Cc1c2c(=O)n(-c3nc4ccccc4s3)nc-2cc(O)n1CCc1cccs1`, the 50% cytotoxic concentration (CC50) was 74.8 µM.
For the compound `Cc1c2c(=O)n(-c3nc4ccccc4s3)nc-2cc(O)n1Cc1ccccc1Cl`, the CC50 was 32.9 µM.
Consider `COc1ccccc1Cn1c(O)cc2nn(-c3nc4ccccc4s3)c(=O)c-2c1C`, for which the CC50 was 43.2 µM.
Regarding `COc1ccc(Cn2c(O)cc3nn(-c4nc5ccccc5s4)c(=O)c-3c2C)cc1`, the CC50 is 41.1 µM.
